Legend:
A549 = assay: Cytotoxicity against human A549 cells by MTT assay; format: functional, cell-based
HCT-116 = assay: Cytotoxicity against human HCT116 cells by SRB assay; format: functional, cell-based

SMILES	IC50 (A549) [µM]	IC50 (HCT-116) [µM]
C=C(CCC=C(C)C)[C@H]1CC[C@]2(C)CCCC(=C)[C@H]2C1 [LOBOPHYTUMIN C]	35.7	37.1
C=C(CCC=C(C)C)[C@H]1CC[C@@]2(C)CCC=C(C)[C@@H]2C1 [LOBOPHYTUMIN D]	36.7	35.7
COC(=O)Nc1nc2cc(C(=O)c3cccs3)ccc2[nH]1 [NOCODAZOLE]	0.087	0.173
